Here are results for one compound from ChEMBL document CHEMBL1671852, “In vitro activities of linezolid against clinical isolates of Mycobacterium tuberculosis complex isolated in Taiwan over 10 years” (2008).

The subject of assay [1] is Mycobacterium tuberculosis. Briefly: Antibacterial activity against multidrug-resistant Mycobacterium tuberculosis harboring gyrA D94A mutation by agar proportion method. The class given is functional.
The subject of assay [2] is Mycobacterium tuberculosis. Briefly: Antibacterial activity against multidrug-resistant Mycobacterium tuberculosis by agar proportion method. The class given is functional.

≈ marks a conversion by molar mass, not a printed value.

One may read the MIC as the lowest concentration found to suppress growth. By MIC50 is commonly meant the lowest concentration that inhibits either 50% of growth or 50% of the strains tested, depending on the study. As usually defined, the MIC90 is the lowest concentration that inhibits either 90% of growth or 90% of the strains tested, depending on the study. Low readings indicate greater potency, high ones weaker potency. In turn, `CC(=O)NC[C@H]1CN(c2ccc(N3CCOCC3)c(F)c2)C(=O)O1` [LINEZOLID] came in with a minimal inhibitory concentration (MIC) in assay [1] of 4 µg/mL (≈ 11.9 µM). Also, in assay [2], the MIC50 turned out to be 0.5 µg/mL (≈ 1.48 µM) and the MIC90 came to 0.5 µg/mL (≈ 1.48 µM).
